Test results from patent US20040019026A1, “Compounds useful for treating hypertriglyceridemia” (priority 2000, published 2004).

Assays:
[1] = test system: Female CD-1 mice; assay: Dexamethasone-induced thymic and splenic atrophy, anti-glucocorticoid effect (Example 4); type: in vivo; settings: 1.6 mg dexamethasone s.c., sacrifice about 24 hours later
Procedure: Female CD-1 mice were obtained from Charles River Laboratories, Kingston, N.Y. at 43-45 days of age. The mice were housed five per cage in plastic shoebox cages on corn cob bedding in the Fels Animal Facility at 72°±2° F. with 50%±5% humidity and twelve hours of alternate light and darkness. The mice had ad libitum access to Purina chain 5015 and acidified water for pretreatment.
Six days later, the mice were weighed, earmarked and redistributed into six groups for treatment: 1) a control group, 2) a group treated with dexamethasone (“DEX”), a glucocorticoid which induces thymic and splenic atrophy, 3) a group treated with 200 mg/kg 16α-fluoro-5-androsten-17-one (hereinafter “drug”), 4) a group treated with 400 mg/kg of, 5) a group treated with dexamethasone and 200 mg/kg drug and 6) a group treated with dexamethasone and 400 mg/kg drug. The treatment in the groups were as follows and were conducted simuitaneously.
The control group was intubated with 0.2 mL of sesame oil for three days. On the third day after commencement of the intubation, the mice were injected subcutaneously with 0.05 mL of absolute ethanol one hour after the last treatment with sesame oil.
The second group was intubated with 0.2 mL of sesame oil for three days. On the third day after the commencement of the intubation, the mice were injected subcutaneously with 1.6 mg of dexamethasone dissolved in 0.05 mL of absolute ethanol approximately one hour after the last treatment with sesame oil.
The third and fourth groups were intubated with 200 mg/Kg and 400 mg/Kg drug, respectively, suspended in 0.2 mL of sesame oil for three days. After commencement of the intubation, the mice were injected subcutaneously with 0.05 mL of absolute ethanol approximately one hour after the last treatment with sesame oil.
The fifth and sixth groups were intubated with 200 mg/kg and 400 mg/kg, respectively, of drug, suspended in 0.2 mL of sesame oil for three days. On the third day after commencement of the intubation, the mice were injected subcutaneously with 1.6 mg of dexamethasome dissolved in 0.05 mL of absolute ethanol approximately one hour after the last treatment with sesame oil.
All of the mice were sacrificed by an overdose of CO2 approximately 24 hours after the injection of ethanol (first, third and fourth groups) or approximately 24 hours after injection with dexamethasone (second, fifth and sixth groups). The mice were weighed and the thymus was excised, cleaned of adventia, rinsed in phosphate-buffered saline (P.B.S.), blotted and weighed. The spleen was also excised, cleaned, rinsed, blotted and weighed.

[2] = background statement; cited from earlier work

Row | Structure (SMILES) | Spleen Wt. [1] [mg] | Thymus Wt. [1] [mg] | Effect on HDL levels [2] | Effect on insulin resistance [2] | Lowering of triglycerides [2] | Side effects [2]
1 | C[C@@H]1C[C@H]2[C@@H]3CCC4=CC(=O)C=C[C@]4(C)[C@@]3(F)[C@@H](O)C[C@]2(C)[C@@]1(O)C(=O)CO [DEX, dexamethasone, reference compound] | 45.2 ± 7.5 | 36.8 ± 7.1 | – | – | – | –
2 | Cc1ccc(C)c(OCCCC(C)(C)C(=O)O)c1 [Gemfibrozil, gemfibrozil] | – | – | modestly raises HDL levels | no effect on insulin resistance | 25-35% | –
3 | O=C(O)c1cccnc1 [Nicotinic acid, nicotinic acid] | – | – | – | worsens insulin resistance | – | intense flushing and associated pruritus
